Assays:
[1] = biological target: Receptor tyrosine-protein kinase erbB-2 (Homo sapiens, UniProt P04626, D769H); assay: Inhibition of HER2 D769H mutant (unknown origin) incubated for 120 mins in presence of 33P-ATP by P81 ion exchange cellulose chromatography
BaF3 [2] = assay: Antitumor activity against mouse BaF3 cells harbouring HER2 A775_G776insYVMA mutant xenografted in BALB/c nude mouse assessed as tumor growth inhibition by measuring relative tumor growth at 40 mg/kg, po qd for 13 days by caliper method relative to control; format: functional; details: time 13 day
NCI-N87 [3] = assay: Antitumor activity against human NCI-N87 cells xenografted in BALB/c nude mouse assessed as tumor growth inhibition by measuring relative tumor growth at 10 mg/kg/day, po administered once daily for 21 days by caliper method relative to control; format: functional; details: time 21 day
[4] = Toxicity in BALB/c nude mouse xenografted with human BT-474 cells assessed as reduction in body weight at 5 to 40 mg/kg, po administered once daily for 21 days; format: organism-based; details: in vivo, 504 h, dose 5-40 mg/kg, time 21 day
[5] = Volume of distribution at steady state in ICR mouse at 3 mg/kg, iv measured upto 1440 mins by LC/MS/MS analysis; format: ADME, organism-based; details: in vivo, read-out: Vdss
[6] = biological target: Receptor tyrosine-protein kinase erbB-2 (Homo sapiens, UniProt P04626); assay: Inhibition of wild type human GST-tagged HER2 (676 to end residues) expressed in baculovirus infected Sf9 cells incubated for 30 mins in presence of ATP by HTRF analysis
[7] = Clearance in cynomolgus monkey at 1 mg/kg, iv measured upto 1440 mins by LC/MS/MS analysis; format: ADME, organism-based, Macaca fascicularis; details: in vivo
[8] = Clearance in ICR mouse at 3 mg/kg, iv measured upto 1440 mins by LC/MS/MS analysis; format: ADME, organism-based; details: in vivo
[9] = Tmax in ICR mouse at 10 mg/kg, po measured upto 1440 mins by LC/MS/MS analysis; format: ADME, organism-based; details: in vivo
MDA-MB-468 = assay: Antiproliferative activity against human MDA-MB-468 cells overexpressing wild type EGFR assessed as cell growth inhibition incubated for 72 hrs by Celltiter-Glo assay; format: functional, cell-based; details: MDA-MB-468, 72 h
SK-BR-3 = assay: Antiproliferative activity against human SK-BR-3 cells overexpressing wild type HER2 assessed as cell growth inhibition incubated for 72 hrs by Celltiter-Glo assay; format: functional, cell-based; details: SK-BR-3, 72 h
[10] = AUC (0 to t) in Sprague-Dawley rat at 10 mg/kg, po measured upto 1440 mins by LC/MS/MS analysis; format: ADME, organism-based; design: dose 10 mg/kg, time < 1440 min, route po; details: in vivo
[11] = Tmax in Sprague-Dawley rat at 10 mg/kg, po measured upto 1440 mins by LC/MS/MS analysis; format: ADME, organism-based; details: in vivo
[12] = Volume of distribution at steady state in Sprague-Dawley rat at 3 mg/kg, iv measured upto 1440 mins by LC/MS/MS analysis; format: ADME, organism-based; details: in vivo, read-out: Vdss
[13] = Half life in cynomolgus monkey at 1 mg/kg, iv measured upto 1440 mins by LC/MS/MS analysis; format: ADME, organism-based, Macaca fascicularis; details: in vivo
[14] = Oral bioavailability in ICR mouse at 10 mg/kg measured upto 1440 mins by LC/MS/MS analysis; format: ADME, organism-based; details: in vivo
[15] = Clearance in Sprague-Dawley rat at 3 mg/kg, iv measured upto 1440 mins by LC/MS/MS analysis; format: ADME, organism-based; details: in vivo
[16] = Half life in Sprague-Dawley rat at 3 mg/kg, iv measured upto 1440 mins by LC/MS/MS analysis; format: ADME, organism-based; details: in vivo
[17] = Antiproliferative activity against human KM12-Luc cells assessed as cell growth inhibition incubated for 72 hrs by Celltiter-Glo assay; format: functional, cell-based
BaF3 [18] = assay: Antitumor activity against mouse BaF3 cells harbouring HER2 A775_G776insYVMA mutant xenografted in BALB/c nude mouse assessed as tumor growth inhibition at 20 mg/kg, po qd measured for 13 days relative to control; format: functional; details: BaF3, 312 h, time 13 day, read-out: TGI
BT-474 [19] = assay: Antitumor activity against human BT-474 cells xenografted in BALB/c nude mouse assessed as tumor growth inhibition by measuring relative tumor growth at 10 mg/kg/day, po administered once daily for 21 days by caliper method relative to control; format: functional; details: time 21 day
ES-2 = assay: Antiproliferative activity against human ES2 cells assessed as cell growth inhibition incubated for 72 hrs by Celltiter-Glo assay; format: functional, cell-based; details: ES-2, 72 h
[20] = biological target: Receptor tyrosine-protein kinase erbB-2 (Homo sapiens, UniProt P04626, V777L); assay: Inhibition of HER2 V777L mutant (unknown origin) incubated for 120 mins in presence of 33P-ATP by P81 ion exchange cellulose chromatography
[21] = AUC (0 to t) in cynomolgus monkey at 15 mg/kg, po measured upto 1440 mins by LC/MS/MS analysis; format: ADME, organism-based, Macaca fascicularis; design: time < 1440 min, dose 15 mg/kg, route po; details: in vivo
[22] = Cmax in cynomolgus monkey at 15 mg/kg, po measured upto 1440 mins by LC/MS/MS analysis; format: ADME, organism-based, Macaca fascicularis; design: dose 15 mg/kg, time < 1440 min, route po; details: in vivo
NCI-N87 [23] = assay: Antiproliferative activity against human NCI-N87 cells assessed as inhibition of cell growth incubated for 72 hrs by Celltiter-Glo assay; format: functional, cell-based; details: NCI-N87, 72 h
BT-474 [24] = assay: Antitumor activity against human BT-474 cells xenografted in BALB/c nude mouse assessed as tumor growth inhibition by measuring relative tumor growth at 5 mg/kg/day, po administered once daily for 21 days by caliper method relative to control; format: functional; details: time 21 day
[25] = Cmax in Sprague-Dawley rat at 10 mg/kg, po measured upto 1440 mins by LC/MS/MS analysis; format: ADME, organism-based; design: time < 1440 min, dose 10 mg/kg, route po; details: in vivo
[26] = Oral bioavailability in cynomolgus monkey at 15 mg/kg measured upto 1440 mins by LC/MS/MS analysis; format: ADME, organism-based, Macaca fascicularis; details: in vivo
COLO-678 = assay: Antiproliferative activity against human COLO-678 cells assessed as cell growth inhibition incubated for 72 hrs by Celltiter-Glo assay; format: functional, cell-based; details: COLO-678, 72 h
[27] = biological target: Receptor tyrosine-protein kinase erbB-2 (Homo sapiens, UniProt P04626, R896C); assay: Inhibition of HER2 R896C mutant (unknown origin) incubated for 120 mins in presence of 33P-ATP by P81 ion exchange cellulose chromatography
BaF3 [28] = assay: Antiproliferative activity against mouse BaF3 cells harbouring HER2 […] mutant assessed as inhibition of cell growth incubated for 72 hrs by Celltiter-Glo assay; format: functional, cell-based; details: BaF3, 72 h
BaF3 [29] = assay: Antitumor activity against mouse BaF3 cells harbouring HER2 A775_G776insYVMA xenografted in BALB/c nude mouse assessed as tumor growth inhibition at 10 mg/kg/day, po qd measured for 13 days relative to control; format: functional; details: BaF3, 312 h, time 13 day, read-out: TGI
[30] = biological target: Receptor tyrosine-protein kinase erbB-2 (Homo sapiens, UniProt P04626, D769Y); assay: Inhibition of HER2 D769Y mutant (unknown origin) incubated for 120 mins in presence of 33P-ATP by P81 ion exchange cellulose chromatography
[31] = Metabolic stability in human liver microsomes assessed as intrinsic clearance at 1 uM preincubated for 5 mins followed by NADPH addition by LC-MS/MS analysis; format: ADME, Microsome; details: read-out: CLH
[32] = Half life in ICR mouse at 3 mg/kg, iv measured upto 1440 mins by LC/MS/MS analysis; format: ADME, organism-based; details: in vivo

Receptor tyrosine-protein kinase erbB-2 (Homo sapiens, UniProt P04626, V777L), sequence (P04626 23-1255 V777L limits assumed): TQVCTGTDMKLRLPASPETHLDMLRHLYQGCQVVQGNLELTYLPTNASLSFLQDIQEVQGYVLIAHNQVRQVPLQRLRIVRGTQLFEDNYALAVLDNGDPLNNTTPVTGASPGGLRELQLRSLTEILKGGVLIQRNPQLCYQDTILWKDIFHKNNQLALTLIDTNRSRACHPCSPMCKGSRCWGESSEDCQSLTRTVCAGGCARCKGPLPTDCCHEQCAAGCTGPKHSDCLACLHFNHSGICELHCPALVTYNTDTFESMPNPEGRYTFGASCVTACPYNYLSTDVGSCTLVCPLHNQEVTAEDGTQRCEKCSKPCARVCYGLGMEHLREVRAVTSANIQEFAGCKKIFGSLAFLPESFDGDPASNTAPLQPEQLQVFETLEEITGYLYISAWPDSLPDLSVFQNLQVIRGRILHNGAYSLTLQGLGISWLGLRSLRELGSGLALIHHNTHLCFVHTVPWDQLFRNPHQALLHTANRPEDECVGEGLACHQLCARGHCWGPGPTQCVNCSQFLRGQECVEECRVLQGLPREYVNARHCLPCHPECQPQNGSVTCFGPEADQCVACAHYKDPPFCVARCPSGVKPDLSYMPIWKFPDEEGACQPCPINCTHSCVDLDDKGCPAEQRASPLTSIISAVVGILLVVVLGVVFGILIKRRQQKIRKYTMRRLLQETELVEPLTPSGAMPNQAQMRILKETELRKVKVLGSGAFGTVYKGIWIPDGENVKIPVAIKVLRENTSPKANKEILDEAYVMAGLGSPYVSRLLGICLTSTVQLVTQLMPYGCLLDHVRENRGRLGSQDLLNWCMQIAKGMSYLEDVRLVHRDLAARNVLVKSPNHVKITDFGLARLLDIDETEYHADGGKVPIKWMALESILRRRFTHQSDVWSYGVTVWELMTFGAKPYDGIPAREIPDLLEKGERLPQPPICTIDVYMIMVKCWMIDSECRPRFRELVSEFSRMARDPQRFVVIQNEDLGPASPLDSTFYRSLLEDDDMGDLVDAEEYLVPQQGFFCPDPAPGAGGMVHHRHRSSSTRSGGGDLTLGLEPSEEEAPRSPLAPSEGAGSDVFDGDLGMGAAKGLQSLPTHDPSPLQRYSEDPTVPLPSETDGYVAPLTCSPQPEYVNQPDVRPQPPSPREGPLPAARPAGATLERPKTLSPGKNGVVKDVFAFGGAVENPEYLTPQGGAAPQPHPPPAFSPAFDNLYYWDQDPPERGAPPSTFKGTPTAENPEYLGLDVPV
Receptor tyrosine-protein kinase erbB-2 (Homo sapiens, UniProt P04626), sequence (P04626 whole entry): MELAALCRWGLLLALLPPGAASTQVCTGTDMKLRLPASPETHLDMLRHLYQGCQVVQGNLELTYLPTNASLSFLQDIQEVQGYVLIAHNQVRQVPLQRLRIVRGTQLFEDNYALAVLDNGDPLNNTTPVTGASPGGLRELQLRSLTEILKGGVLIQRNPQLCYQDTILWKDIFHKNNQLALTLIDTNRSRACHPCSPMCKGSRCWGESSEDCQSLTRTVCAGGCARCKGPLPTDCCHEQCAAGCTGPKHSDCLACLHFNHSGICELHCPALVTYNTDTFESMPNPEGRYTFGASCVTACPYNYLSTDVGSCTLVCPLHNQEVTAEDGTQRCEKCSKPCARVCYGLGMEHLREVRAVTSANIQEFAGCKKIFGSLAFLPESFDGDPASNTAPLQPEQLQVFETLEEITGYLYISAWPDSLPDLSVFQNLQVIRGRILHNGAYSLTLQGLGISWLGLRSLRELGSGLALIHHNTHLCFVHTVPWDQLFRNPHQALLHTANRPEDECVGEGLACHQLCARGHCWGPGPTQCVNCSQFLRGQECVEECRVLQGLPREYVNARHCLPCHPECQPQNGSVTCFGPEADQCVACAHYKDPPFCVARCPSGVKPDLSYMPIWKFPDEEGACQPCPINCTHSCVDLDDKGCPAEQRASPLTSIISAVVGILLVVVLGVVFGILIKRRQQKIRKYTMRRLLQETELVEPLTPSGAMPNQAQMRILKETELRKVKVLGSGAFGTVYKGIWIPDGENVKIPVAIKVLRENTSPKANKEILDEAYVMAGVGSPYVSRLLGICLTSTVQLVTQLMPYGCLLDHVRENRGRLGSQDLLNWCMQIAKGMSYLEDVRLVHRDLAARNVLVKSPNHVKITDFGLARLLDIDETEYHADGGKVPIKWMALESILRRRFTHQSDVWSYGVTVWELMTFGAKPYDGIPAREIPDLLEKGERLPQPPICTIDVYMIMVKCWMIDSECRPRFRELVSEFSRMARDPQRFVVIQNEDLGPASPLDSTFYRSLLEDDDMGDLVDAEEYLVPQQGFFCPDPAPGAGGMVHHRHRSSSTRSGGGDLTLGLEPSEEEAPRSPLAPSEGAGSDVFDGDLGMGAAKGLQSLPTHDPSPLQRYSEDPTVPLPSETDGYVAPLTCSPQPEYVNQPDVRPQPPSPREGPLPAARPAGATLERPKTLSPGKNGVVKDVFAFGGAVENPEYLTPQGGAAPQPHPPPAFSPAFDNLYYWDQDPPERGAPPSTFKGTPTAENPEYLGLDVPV
Receptor tyrosine-protein kinase erbB-2 (Homo sapiens, UniProt P04626, D769H), sequence (P04626 23-1255 D769H limits assumed): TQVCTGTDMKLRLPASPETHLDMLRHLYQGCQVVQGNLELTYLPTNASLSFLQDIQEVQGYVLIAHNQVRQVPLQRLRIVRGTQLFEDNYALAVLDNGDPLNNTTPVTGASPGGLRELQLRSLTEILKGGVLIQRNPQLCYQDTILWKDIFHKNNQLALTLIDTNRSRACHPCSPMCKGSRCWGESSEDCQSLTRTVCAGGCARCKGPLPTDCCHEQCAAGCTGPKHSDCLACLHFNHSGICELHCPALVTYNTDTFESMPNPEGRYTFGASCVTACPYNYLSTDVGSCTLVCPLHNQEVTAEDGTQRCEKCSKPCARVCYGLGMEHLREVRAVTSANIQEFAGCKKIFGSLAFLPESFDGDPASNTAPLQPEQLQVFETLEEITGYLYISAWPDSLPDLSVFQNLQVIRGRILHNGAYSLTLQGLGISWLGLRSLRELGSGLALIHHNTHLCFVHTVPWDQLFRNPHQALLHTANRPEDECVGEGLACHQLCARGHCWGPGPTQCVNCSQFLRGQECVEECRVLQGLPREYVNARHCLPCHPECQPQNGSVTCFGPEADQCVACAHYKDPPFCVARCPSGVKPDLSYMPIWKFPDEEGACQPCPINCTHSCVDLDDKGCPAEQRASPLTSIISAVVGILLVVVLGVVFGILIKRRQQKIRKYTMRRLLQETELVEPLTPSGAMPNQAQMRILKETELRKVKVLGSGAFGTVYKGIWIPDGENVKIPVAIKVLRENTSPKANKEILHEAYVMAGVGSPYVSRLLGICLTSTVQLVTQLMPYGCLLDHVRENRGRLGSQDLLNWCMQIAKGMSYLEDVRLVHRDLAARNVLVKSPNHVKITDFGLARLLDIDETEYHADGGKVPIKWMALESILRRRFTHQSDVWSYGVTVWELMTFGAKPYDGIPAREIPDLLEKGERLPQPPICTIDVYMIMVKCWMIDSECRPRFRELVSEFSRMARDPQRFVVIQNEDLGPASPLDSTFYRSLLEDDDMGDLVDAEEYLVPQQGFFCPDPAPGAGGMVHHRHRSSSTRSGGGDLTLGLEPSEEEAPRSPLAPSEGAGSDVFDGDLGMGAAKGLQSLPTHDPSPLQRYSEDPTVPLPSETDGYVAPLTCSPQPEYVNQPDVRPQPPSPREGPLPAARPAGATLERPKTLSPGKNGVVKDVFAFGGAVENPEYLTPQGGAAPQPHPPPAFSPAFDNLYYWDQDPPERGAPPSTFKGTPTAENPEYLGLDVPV
Receptor tyrosine-protein kinase erbB-2 (Homo sapiens, UniProt P04626, R896C), sequence (P04626 23-1255 R896C limits assumed): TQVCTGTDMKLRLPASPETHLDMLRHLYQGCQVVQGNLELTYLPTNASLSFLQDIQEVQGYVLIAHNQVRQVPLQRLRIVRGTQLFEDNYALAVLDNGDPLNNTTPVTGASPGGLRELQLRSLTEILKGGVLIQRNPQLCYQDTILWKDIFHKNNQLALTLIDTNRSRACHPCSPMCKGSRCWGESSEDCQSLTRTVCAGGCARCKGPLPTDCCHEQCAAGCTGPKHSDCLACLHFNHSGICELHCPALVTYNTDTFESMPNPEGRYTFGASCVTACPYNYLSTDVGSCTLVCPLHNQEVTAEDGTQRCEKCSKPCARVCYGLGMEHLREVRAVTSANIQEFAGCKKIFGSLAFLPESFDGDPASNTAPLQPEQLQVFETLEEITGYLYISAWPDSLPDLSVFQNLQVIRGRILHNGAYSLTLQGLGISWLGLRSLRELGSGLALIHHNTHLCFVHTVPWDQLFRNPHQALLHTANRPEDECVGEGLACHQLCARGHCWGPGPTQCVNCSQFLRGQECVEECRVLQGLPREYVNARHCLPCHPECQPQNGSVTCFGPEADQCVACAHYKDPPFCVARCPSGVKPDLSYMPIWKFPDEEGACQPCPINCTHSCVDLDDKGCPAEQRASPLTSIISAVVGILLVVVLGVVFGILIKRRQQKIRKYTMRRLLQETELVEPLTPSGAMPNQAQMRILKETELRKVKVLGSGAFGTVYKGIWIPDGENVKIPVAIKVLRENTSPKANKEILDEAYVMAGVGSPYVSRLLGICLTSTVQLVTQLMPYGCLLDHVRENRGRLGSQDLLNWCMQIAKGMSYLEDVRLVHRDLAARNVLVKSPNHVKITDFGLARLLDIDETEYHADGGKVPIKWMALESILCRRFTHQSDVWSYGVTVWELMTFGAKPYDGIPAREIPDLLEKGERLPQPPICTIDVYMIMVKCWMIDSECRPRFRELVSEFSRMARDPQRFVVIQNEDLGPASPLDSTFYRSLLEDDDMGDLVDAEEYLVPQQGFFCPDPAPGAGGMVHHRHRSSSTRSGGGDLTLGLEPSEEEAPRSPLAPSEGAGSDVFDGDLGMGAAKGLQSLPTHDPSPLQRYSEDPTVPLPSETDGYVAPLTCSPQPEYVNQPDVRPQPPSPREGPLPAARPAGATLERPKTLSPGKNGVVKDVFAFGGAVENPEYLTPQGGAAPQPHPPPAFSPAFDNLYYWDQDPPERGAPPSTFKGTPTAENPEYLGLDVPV

CCOc1cc2ncnc(Nc3ccc(Oc4cc5nncn5cn4)c(C)c3)c2cc1NC(=O)/C(F)=C/[C@H]1CCCN1C
IC50 [1]: 0.42 nM
T/C (BaF3 [2]): 2%
T/C (NCI-N87 [3]): 2.6%
Activity [4]: Non-Toxic
Vd [5]: 2.96 L/kg
IC50 [6]: 3.51 nM
clearance [7]: 10.2 mL/min/kg
clearance [8]: 11.7 mL/min/kg
Tmax [9]: 2.67 h
IC50 (MDA-MB-468): 2980 nM
IC50 (SK-BR-3): 20.1 nM
AUC(0-t) at 24 h [10]: 5470 ng·h/mL
Tmax [11]: 3.33 h
Vd [12]: 3.55 L/kg
half-life [13]: 7.46 h
bioavailability [14]: 87.7%
clearance [15]: 13 mL/min/kg
half-life [16]: 4.56 h
IC50 [17]: 3600 nM
inhibition in vivo at 20 mg/kg (BaF3 [18]): 107%
T/C (BT-474 [19]): 8.31%
IC50 (ES-2): 2720 nM
IC50 [20]: 0.16 nM
AUC(0-t) at 24 h [21]: 10400 ng·h/mL
Cmax [22]: 790 ng/mL
IC50 (NCI-N87 [23]): 1.09 nM
T/C (BT-474 [24]): 17.68%
Cmax [25]: 760 ng/mL
bioavailability [26]: 43.4%
IC50 (COLO-678): 6070 nM
IC50 [27]: 0.56 nM
IC50 (BaF3 [28]): 6.3 nM
inhibition in vivo at 10 mg/kg/day (BaF3 [29]): 95%
IC50 [30]: 0.43 nM
microsomal CLint at 1 µM [31]: 2.5 µL/min/mg
half-life [32]: 3.76 h

Source: ChEMBL document CHEMBL5154811, “Discovery of SPH5030, a Selective, Potent, and Irreversible Tyrosine Kinase Inhibitor for HER2-Amplified and HER2-Mutant Cancer Treatment” (J Med Chem, 2022)
